Data taken from article PMC10828444, “Selective inhibition of overactive warmth-sensitive Ca^2+-permeable TRPV3 channels by antispasmodic agent flopropione for alleviation of skin inflammation” (The Journal of Biological Chemistry, 2023).

Experiments:
[1] = molecular target: T1, hTRPM8 (Homo sapiens, UniProt Q7Z2W7); assay: Whole-cell patch-clamp of TRPM8 currents elicited by menthol in HEK293 cells; type: cell-based; conditions: flopropione 100 μM, menthol 500 μM
T1 construct: expressed in transfected cells; host or cells: HEK293
T1 sequence (Q7Z2W7 whole entry): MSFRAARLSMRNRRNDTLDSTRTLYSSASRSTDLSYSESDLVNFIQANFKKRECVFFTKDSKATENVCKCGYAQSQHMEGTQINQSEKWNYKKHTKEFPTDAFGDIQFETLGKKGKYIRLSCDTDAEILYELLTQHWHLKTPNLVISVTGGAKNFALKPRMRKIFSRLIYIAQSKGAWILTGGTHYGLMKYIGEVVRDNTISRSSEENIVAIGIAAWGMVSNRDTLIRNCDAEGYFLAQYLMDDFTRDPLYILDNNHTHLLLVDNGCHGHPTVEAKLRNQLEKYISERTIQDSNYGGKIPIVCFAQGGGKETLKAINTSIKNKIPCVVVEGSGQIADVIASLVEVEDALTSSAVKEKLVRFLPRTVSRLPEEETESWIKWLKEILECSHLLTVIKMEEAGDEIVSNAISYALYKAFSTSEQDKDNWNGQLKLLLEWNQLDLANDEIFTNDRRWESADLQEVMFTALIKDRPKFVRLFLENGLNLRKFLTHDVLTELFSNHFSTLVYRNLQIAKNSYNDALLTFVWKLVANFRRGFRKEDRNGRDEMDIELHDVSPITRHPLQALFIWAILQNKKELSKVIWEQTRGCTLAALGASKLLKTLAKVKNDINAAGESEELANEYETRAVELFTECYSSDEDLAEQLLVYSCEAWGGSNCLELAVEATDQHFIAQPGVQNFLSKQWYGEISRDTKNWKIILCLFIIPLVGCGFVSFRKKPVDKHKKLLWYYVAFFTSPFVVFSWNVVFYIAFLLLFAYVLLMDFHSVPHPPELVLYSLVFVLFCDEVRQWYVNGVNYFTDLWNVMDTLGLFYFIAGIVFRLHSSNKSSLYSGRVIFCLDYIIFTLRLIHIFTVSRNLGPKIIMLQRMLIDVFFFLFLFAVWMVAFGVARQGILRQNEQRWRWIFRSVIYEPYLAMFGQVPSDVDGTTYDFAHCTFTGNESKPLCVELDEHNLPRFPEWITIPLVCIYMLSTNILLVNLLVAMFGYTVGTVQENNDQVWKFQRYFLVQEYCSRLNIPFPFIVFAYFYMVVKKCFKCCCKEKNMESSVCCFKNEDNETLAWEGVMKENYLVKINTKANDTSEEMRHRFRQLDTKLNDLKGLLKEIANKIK
Description: (§1) HEK293 cells were cultured in Dulbecco’s modified Eagle’s medium (DMEM, Gibco) containing 4.5 g/L D-glucose supplemented with 10% fetal bovine serum based at 37 °C with 5% CO2. For whole-cell patch-clamp recordings, cells were grown in glass coverslips for 24 h before transient transfections with 3000 ng cDNAs of hTRPV3 (gene accession number BC104866.1), hTRPV1 (accession number NM_080704.3), mTRPV2 (accession number NM_011706.2), hTRPV4 (accession number NM_021625.5), hTRPA1 (accession number NM_007332.3) and hTRPM8 (accession number NM_024080.5) into HEK293 cells grown in a 35-mm cell culture dish using Lipofectamine 2000 (Invitrogen). Cells were used 18 ∼ 24 h after transfection. All WT or mutant hTRPV3 plasmids were validated by DNA sequencing.
(§2) Whole-cell patch clamp recordings of wild-type and mutants were carried out at room temperature using the HEKA EPC10 amplifier powered by PatchMaster software (HEKA) or MultiClamp 700B amplifier driven by Clampex 11.0.3 software. The borosilicate glass pipettes were pulled and fire-polished to 3∼6 MΩ using a DMZ universal electrode puller (Zeitz-Instruments, GmbH). Pipette solution and bath solution both contained (in mM): 130 NaCl, three HEPES, and 0.2 EDTA (pH = 7.4). Cell membrane potential was held at 0 mV, currents were recorded at a voltage ramp from −100 to +100 mV for 500-ms and analyzed at ±80 mV.

[2] = molecular target: T2, TRPV3-E501A mutant (Homo sapiens, UniProt Q8NET8, E501A); assay: Whole-cell and single-channel recordings of TRPV3-E501A mutant; type: cell-based; conditions: 100 μM flopropione whole-cell (50 μM 2-APB); 50 μM single-channel (30 μM 2-APB)
T2 construct: expressed in transfected cells; host or cells: HEK293
T2 sequence (Q8NET8 1-790 E501A): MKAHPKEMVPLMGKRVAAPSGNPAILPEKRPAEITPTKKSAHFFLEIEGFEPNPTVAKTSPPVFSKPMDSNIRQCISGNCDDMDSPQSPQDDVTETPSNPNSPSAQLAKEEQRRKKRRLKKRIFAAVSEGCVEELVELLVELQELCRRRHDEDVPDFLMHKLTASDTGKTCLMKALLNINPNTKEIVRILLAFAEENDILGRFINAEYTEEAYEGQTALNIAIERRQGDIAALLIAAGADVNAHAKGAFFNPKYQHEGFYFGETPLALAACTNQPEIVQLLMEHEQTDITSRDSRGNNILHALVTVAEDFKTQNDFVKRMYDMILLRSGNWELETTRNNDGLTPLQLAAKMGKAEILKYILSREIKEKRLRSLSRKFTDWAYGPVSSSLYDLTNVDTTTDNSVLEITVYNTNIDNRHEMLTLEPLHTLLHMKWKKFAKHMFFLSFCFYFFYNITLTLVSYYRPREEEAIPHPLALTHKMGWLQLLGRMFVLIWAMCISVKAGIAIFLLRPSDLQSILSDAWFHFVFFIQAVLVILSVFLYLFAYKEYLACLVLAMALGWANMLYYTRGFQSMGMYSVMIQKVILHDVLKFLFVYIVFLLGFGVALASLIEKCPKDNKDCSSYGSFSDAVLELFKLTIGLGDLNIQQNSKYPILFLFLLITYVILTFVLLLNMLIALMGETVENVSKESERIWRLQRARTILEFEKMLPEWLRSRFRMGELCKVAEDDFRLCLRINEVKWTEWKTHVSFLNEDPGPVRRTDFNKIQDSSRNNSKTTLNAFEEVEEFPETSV
Description: as §1
as §2, with “mV. […]” for “mV.”

[3] = tested on: DNFB-induced ear swelling; assay: Mouse model of ear swelling induced by DNFB; type: in vivo, C57BL/6J mice; conditions: topical 0.1, 1, 10 mM on right ear for 4 days, vs DNFB alone
Description: Mice were placed in a gas anesthesia device (SurgiVet) for anesthesia before the hair on the back was removed with a razor, followed by the application of an appropriate amount of hair removal cream to gently shave off the remaining hair. For generation of atopic dermatitis and ear swelling, chemical skin sensitizer DNFB (1-Fluoro-2,4-dinitrobenzene), commonly known as Sanger’s Reagent, was dissolved in a solvent (acetone/olive oil = 4/1, v/v) and 0.5% DNFB in 100 μl was applied once topically to the back and right ear for skin sensitization 1 day after acclimatization for hair removal ([43]) without any treatment for next 3 days. On the fifth and sixth days, 0.2% DNFB in 50 μl was applied topically once a day for 2 days for challenge before different concentrations of flopropione in 100 μl were topically applied once a day for four consecutive days. […]
The score contents and criteria include (1): skin erythematous/bleeding (2), skin scratches/erosion (3), skin edema (4), skin scaling or lichenoid change ([44]). Each symptom was scored from 0 to 3 (none, 0; mild, one; moderate, two; severe, (3). The final score was defined as the sum of individual scores on a scale from 0 to 12. Mouse ear thickness was measured once a day for continuous 5 days with the first measurement of ear thickness 30 min after the last application of 0.2% DNFB using vernier caliper.

[4] = molecular target: T3, hTRPV4 (Homo sapiens, UniProt Q9HBA0); assay: Whole-cell patch-clamp of TRPV4 currents activated by GSK1016790A in HEK293 cells; type: cell-based; conditions: flopropione 100 μM, GSK1016790A 0.1 μM
T3 construct: expressed in transfected cells; host or cells: HEK293
T3 sequence (Q9HBA0 whole entry): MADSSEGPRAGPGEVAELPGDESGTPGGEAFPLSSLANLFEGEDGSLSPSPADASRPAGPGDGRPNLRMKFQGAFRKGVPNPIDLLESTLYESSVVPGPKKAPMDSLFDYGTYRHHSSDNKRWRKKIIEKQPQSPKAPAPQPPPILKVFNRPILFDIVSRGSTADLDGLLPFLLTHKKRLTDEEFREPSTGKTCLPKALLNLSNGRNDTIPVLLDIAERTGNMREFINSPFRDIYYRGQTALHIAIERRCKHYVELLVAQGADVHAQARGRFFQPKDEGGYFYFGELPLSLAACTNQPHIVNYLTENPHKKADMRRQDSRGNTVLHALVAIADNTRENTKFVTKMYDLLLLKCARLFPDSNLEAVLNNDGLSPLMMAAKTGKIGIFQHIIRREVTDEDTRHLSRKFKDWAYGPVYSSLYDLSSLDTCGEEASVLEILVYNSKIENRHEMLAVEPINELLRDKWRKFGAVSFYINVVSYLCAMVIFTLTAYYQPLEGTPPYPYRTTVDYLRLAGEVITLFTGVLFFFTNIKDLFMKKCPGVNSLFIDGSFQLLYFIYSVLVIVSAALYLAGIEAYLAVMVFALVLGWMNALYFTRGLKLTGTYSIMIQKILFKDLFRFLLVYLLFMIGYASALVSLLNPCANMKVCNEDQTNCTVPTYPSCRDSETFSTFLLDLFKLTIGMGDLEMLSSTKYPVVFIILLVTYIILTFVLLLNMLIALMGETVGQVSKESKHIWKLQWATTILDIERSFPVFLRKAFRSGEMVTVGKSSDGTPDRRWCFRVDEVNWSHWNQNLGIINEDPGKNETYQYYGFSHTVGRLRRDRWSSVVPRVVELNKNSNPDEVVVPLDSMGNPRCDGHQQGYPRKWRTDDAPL
Description: as §1, §2

effect on TRPM8 currents [1]: no effect | effect of E501A mutation on inhibition by flopropione [2]: significantly reduced TRPV3 inhibition | effect on TRPV4 currents [4]: no effect
SMILES: CCC(=O)c1c(O)cc(O)cc1O [flopropione]
ear swelling (ear thickness, vernier caliper) [3]: significantly reduced ear swelling
